From ChEMBL document CHEMBL1131161 (J Med Chem, 1998) come the findings set out here.

Assay [1] deals with T1, Progesterone receptor (Homo sapiens, UniProt P06401).
T1 sequence (P06401 whole entry): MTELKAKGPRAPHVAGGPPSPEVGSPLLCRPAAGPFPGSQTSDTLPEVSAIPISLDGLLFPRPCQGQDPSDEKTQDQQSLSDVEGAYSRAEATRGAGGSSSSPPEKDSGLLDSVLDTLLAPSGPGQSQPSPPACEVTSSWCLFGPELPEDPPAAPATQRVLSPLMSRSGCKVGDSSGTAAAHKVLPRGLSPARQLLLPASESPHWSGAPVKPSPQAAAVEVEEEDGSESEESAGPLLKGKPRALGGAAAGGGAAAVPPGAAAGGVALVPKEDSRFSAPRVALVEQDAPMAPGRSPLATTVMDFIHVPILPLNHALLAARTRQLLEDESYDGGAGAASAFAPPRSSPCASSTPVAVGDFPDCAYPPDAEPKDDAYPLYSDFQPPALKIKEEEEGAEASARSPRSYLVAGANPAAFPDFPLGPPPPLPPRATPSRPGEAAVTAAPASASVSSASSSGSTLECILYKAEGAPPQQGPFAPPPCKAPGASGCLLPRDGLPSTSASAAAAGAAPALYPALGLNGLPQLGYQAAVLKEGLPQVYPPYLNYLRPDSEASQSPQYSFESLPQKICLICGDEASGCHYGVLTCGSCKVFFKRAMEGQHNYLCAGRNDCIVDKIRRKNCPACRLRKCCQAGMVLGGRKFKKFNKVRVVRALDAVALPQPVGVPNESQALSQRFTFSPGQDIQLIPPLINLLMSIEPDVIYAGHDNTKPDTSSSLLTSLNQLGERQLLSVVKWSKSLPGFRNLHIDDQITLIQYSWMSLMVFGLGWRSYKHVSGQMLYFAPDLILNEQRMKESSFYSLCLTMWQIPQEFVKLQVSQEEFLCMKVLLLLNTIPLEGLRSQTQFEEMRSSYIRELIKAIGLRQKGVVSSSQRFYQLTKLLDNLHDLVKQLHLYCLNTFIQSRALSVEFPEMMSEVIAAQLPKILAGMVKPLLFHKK
Nature of the assay: Binding affinity against human progesterone receptor.

Assay [2] addresses T1, Progesterone receptor. Nature of the assay: Effective concentration (EC50) against human progesterone receptor expressed in CV-1 cell. Format: functional, cell-based.
Assay [3] deals with T2, Glucocorticoid receptor (Homo sapiens, UniProt P04150).
T2 sequence (P04150 whole entry): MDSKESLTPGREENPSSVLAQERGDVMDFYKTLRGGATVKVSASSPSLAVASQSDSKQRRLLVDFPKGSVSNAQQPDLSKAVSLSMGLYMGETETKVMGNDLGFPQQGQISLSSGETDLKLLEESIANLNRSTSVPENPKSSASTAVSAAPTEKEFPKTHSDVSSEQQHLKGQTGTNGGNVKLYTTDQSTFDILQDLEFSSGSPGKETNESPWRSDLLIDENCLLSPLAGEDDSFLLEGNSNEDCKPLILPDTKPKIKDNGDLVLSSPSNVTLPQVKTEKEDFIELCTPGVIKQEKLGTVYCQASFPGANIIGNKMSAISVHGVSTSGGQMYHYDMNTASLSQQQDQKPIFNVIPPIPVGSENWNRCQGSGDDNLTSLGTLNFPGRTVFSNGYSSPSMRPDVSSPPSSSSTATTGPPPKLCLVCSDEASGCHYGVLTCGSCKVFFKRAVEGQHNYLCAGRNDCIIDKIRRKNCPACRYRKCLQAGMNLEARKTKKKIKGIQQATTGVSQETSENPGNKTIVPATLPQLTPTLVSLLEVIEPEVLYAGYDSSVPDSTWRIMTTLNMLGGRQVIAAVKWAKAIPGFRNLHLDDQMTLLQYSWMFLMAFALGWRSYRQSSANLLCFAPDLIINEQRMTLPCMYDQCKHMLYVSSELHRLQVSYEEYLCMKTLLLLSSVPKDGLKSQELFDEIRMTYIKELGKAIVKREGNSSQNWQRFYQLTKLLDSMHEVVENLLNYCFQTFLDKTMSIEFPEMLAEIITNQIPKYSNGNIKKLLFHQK
Nature of the assay: biochemical.
Description: Binding affinity against human glucocorticoid receptor expressed in SF-12 cells

The target in assay [4] is T3, Androgen receptor (Homo sapiens, UniProt P10275).
T3 sequence (P10275 whole entry): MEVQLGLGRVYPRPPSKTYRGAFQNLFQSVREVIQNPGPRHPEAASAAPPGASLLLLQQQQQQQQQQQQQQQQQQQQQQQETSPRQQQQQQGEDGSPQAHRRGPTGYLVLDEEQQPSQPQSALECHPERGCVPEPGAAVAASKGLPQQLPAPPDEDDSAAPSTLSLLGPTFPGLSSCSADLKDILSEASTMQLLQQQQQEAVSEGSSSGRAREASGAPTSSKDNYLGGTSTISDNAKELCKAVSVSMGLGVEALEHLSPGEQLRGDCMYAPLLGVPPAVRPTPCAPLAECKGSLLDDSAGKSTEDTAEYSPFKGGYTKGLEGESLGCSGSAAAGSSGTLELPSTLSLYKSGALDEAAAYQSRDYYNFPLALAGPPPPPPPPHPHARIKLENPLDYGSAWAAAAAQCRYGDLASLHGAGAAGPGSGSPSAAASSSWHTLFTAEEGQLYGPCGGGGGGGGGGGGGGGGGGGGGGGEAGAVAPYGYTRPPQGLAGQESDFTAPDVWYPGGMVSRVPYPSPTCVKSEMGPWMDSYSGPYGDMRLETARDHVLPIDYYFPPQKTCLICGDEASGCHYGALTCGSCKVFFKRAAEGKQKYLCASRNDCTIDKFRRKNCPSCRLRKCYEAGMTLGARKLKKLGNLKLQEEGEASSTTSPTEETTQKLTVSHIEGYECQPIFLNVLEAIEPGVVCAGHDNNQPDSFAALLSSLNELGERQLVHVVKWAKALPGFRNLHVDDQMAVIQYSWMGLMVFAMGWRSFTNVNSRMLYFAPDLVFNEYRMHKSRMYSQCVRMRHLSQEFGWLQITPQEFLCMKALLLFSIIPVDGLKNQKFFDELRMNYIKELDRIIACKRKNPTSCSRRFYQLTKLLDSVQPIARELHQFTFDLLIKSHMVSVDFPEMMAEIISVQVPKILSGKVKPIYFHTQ
Description: Binding affinity against human androgen receptor

For `CC1=CC(C)(C)Nc2ccc3c(c21)/C(=C/c1ccccc1C)Oc1ccccc1-3`, the figures for the Ki in assay [1], in assay [3] and in assay [4] were 0.66 nM, 564 nM and 844 nM, respectively. The compound further returned an EC50 in assay [2] of 5.7 nM.
`CC1=CC(C)(C)Nc2ccc3c(c21)/C(=C/c1cc(F)ccc1F)Oc1ccccc1-3`: the Ki in assay [1] was determined as 1.5 nM; in assay [3], 173 nM; in assay [4], 887 nM. In assay [2], the EC50 came out at 14.7 nM.
As for `CC1=CC(C)(C)Nc2ccc3c(c21)/C(=C/c1ccc(F)c(F)c1)Oc1ccccc1-3`, the inhibition constant Ki in assay [1] is 3.6 nM; in assay [3], 237 nM; in assay [4] it was more than 1000 nM. Besides, the EC50 in assay [2] was found to be 14.7 nM.

A word on the Ki: it is a measure of affinity in units of concentration, obtained from inhibition or displacement. What is called EC50 is the midpoint of the concentration-response curve. The low end stands for greater potency, the high end for weaker potency.
